We go through ten compounds from patent US10925848B2, “Amide derivative” (Daiichi Sankyo Company, Limited, priority 2017, dated 2021).

SMILES strings stand for the structures. A value given as a limit tells only on which side of the number the result lay.

Experiment [1] deals with tryptophanase of Bacteroides tetaiotaomicron (Bacteroides thetaiotaomicron, UniProt Q8A7N2). Description: Tryptophanase enzyme inhibitory activity (LDH-coupled NADH loss). Format: biochemical. To be noted: 10 mM L-tryptophan, 30 min preincubation at 37° C., absorbance at 340 nm. As to the method: Tryptophanase inhibitory activity was evaluated by a method using lactate dehydrogenase (LDH). The reaction time-dependent reduction in NADH conjugated with the enzymatic reaction, with LDH, of pyruvic acid produced through the enzymatic reaction of L-tryptophan as a substrate with tryptophanase, was measured with a spectrophotometer (Phillips-R S et al., Biochemistry, 23, 6228-6234 (1984)). Enzyme inhibitory activity obtained without adding a test compound (by adding DMSO alone) in the presence of tryptophanase was used as a control. As the enzyme, tryptophanase of Bacteroides tetaiotaomicron (Genbank accession number: HC914434.1) was used.
A test compound solution was prepared by dissolving each test compound in DMSO at concentrations (from 30 mM to 30 nM at 10-fold common ratio). LDH, NADH and L-tryptophan were dissolved, using distilled water, respectively to concentrations of 80 units/mL, 10 mM and 50 mM. Bacteroides tryptophanase was prepared to 30 mg/mL. A potassium phosphate buffer was used as the buffer.
A reaction solution A was dispensed at 284.8 μL per well into a 96-well plate, and the test compound solution was added at 3.2 μL per well to obtain a final concentration of 1/100 (reaction solution B). The reaction solution B was incubated at 37° C. for 30 minutes, L-tryptophan was added thereto at 32 μL per well to obtain a final concentration of […] (reaction solution C), and the enzyme reaction was performed at 37° C. over 30 minutes with absorbance at 340 nm measured for monitoring the NADH loss. Based on the NADH loss, the tryptophanase inhibitory activity of the compound was evaluated.

The subject of another experiment is plasma indoxyl sulfate. Description: Effect of reducing plasma indoxyl sulfate concentration in mice. Format: in vivo. To be noted: oral gavage, plasma 6 hours after L-tryptophan. How it is done:
An effect of a tryptophanase inhibitory compound to reduce plasma indoxyl sulfate concentration in a mouse can be evaluated through the following operation.
After fasting male BALB/c mice overnight, a tryptophanase inhibitory compound dissolved or suspended at a concentration of 0.01 to 10 mg/mL in 0.5% methylcellulose (MC) solution used as a solvent and 0.5% MC solution are orally administered by gavage at a volume of 10 mL/kg respectively to test compound groups and to a solvent control group. 30 minutes after the administration of the test compound or the solvent, L-tryptophan, that is, a substrate of tryptophanase, is orally administered by gavage at a dose of 1 to 3 g/kg. The L-tryptophan is suspended in a 0.5% tragacanth solution. For 12 hours after the administration of the L-tryptophan, blood is collected over time from a tail vein by using a hematocrit tube. The thus obtained blood is centrifuged at 11,000 rpm for 5 minutes to collect plasma, and the indoxyl sulfate concentration in the plasma is measured singly by liquid chromatography (fluorescence detection) or its combination with a mass spectrometer used subsequently. Plasma indoxyl sulfate concentration in the test compound group against the plasma indoxyl sulfate concentration in the solvent control group is calculated as, for example, a ratio of the area under a curve of the indoxyl sulfate concentration, and thus, the efficacy of each compound in vivo can be compared.
The indoxyl sulfate concentrations in plasma obtained by using the compounds of the respective examples shown in Table 14 below were measured by the above-described method to evaluate the plasma indoxyl sulfate suppressing effect.

The test system of a further experiment is Bacteroides. Description: Indole production suppressing effect in viable bacterium. To be noted: 5 mM L-Tryptophan assay medium, anaerobic, indole in culture supernatant, read-out: Bacteroides Indole Production Inhibitory Activity(IC50). The format is cell-based. As to the method: The effect of a tryptophanase inhibitory compound to suppress indole production from a viable bacterium can be evaluated through the following operation.
When E. coli (Eschelicia coli) is used as a strain known to produce indole, the strain is cultured in an LB medium at 37° C. for 12 to 18 hours under anaerobic conditions, and then, suspended in an assay medium (5 mM L-Tryptophan/PBS(+)/25 mM HEPES (pH8)) in such a manner as to obtain O.D. of about 0.3. When bacteroides is used, the strain is cultured in a modified GAM medium at 37° C. for 12 to 18 hours under anaerobic conditions, and then suspended in an assay medium (5 mM L-Tryptophan/PBS(+)/25 mM HEPES (pH8)) in such a manner as to obtain O.D. of about 1.1. The thus obtained viable bacterial suspension prepared to have a final concentration of a compound of 1 μM to 10 mM is dispensed at 200 μL per well into a 96-well plate and cultured at 37° C. for 2 to 4 hours under anaerobic conditions, O.D., an ATP concentration (that can be quantitatively determined by using BacTiter-Glo (Promega Corporation)) and an indole concentration in the culture supernatant (that can be quantitatively determined by utilizing Ehrlich reaction) are measured. The effect of the tryptophanase inhibitory compound to suppress indole production from a viable bacterium can be evaluated depending on the degree of lowering of the indole concentration in the culture supernatant. It can be checked whether or not the effect is derived from a function other than tryptophanase inhibition, such as a bactericidal function or a bacterial growth inhibitory function, depending on lowering of the O.D. or reduction in the ATP concentration or by performing a generally practiced antibacterial activity test (a MIC (minimum growth inhibition concentration) test) using levofloxacin or the like as a positive control.
The activities of inhibiting indole production of the compounds of the respective examples shown in Table 13 were measured by the above-described method using Bacteroides to evaluate the effect of inhibiting indole production.

Sequence of tryptophanase of Bacteroides tetaiotaomicron (Q8A7N2 entry or part of it, change not shown): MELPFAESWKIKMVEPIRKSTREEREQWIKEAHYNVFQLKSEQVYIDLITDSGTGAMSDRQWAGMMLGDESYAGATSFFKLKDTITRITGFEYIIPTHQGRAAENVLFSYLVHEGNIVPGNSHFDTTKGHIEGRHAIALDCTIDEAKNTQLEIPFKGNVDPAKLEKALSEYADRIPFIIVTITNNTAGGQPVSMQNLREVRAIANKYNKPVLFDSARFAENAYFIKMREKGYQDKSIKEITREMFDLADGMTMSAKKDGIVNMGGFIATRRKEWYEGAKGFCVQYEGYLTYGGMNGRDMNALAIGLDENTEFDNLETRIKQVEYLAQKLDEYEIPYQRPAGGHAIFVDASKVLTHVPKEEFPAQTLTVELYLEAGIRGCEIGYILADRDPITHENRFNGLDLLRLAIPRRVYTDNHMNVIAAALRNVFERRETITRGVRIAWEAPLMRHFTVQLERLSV

What is called IC50 is the midpoint of a concentration-inhibition curve. Take `CCC(CC)(NC(=O)c1cc(Cl)c(N)cc1OC)C(=O)O` [Compound of Example 6, 2-[(4-Amino-5-chloro-2-methoxybenzoyl)amino]-2-ethylbutanoic Acid]: the IC50 in experiment [1] is 200 nM; in the experiment with Bacteroides, less than 3000 nM. Besides, the “Plasma Indoxyl Sulfate Reduction Effect in Male BALB/c Mouse (Indoxyl sulfate reduction effect in plasma 6 hours after administration of L-tryptophan: ED75-, mg/kg)” value (shortened to “Plasma Indoxyl Sulfate Reduction Effect”) in the experiment with plasma indoxyl sulfate came to 1 mg/kg.

`CC[C@@](C)(NC(=O)c1cc(Cl)c(N)cc1OC)C(=O)O` [Compound of Example 10, (−)-N-(4-Amino-5-chloro-2-methoxybenzoyl)-D-isovaline]: the IC50 in experiment [1] was 1530 nM; in the experiment on Bacteroides, less than 3000 nM. The “Plasma Indoxyl Sulfate Reduction Effect” value in the experiment with plasma indoxyl sulfate was 1 mg/kg.

For the compound `CCOc1cc(N)c(Cl)cc1C(=O)N[C@](C)(CC)C(=O)O` [Compound of Example 11, (−)-N-(4-Amino-5-chloro-2-ethoxybenzoyl)-D-isovaline], the results for the IC50 (in experiment [1]; with Bacteroides) were 90 nM and less than 3000 nM, respectively. For the same compound, the “Plasma Indoxyl Sulfate Reduction Effect” value in the experiment with plasma indoxyl sulfate was 1 mg/kg.

For the compound `CCOc1cc(N)c(Br)cc1C(=O)N[C@](C)(CC)C(=O)O` [Compound of Example 21, (−)-N-(4-Amino-5-bromo-2-ethoxybenzoyl)-D-isovaline], the values for the half-inhibitory concentration (IC50) (in experiment [1]; in the experiment on Bacteroides) were 100 nM and less than 3000 nM, respectively. Further, the “Plasma Indoxyl Sulfate Reduction Effect” value with plasma indoxyl sulfate was found to be 1 mg/kg.

`CCCOc1cc(N)c(Cl)cc1C(=O)N[C@](C)(CC)C(=O)O` [Compound of Example 25, (−)-N-(4-Amino-5-chloro-2-propoxybenzoyl)-D-isovaline]: the IC50 in experiment [1] was 40 nM; in the experiment on Bacteroides it was less than 3000 nM. Besides, the “Plasma Indoxyl Sulfate Reduction Effect” value with plasma indoxyl sulfate came to 1 mg/kg.

In the case of `CCOc1cc(N)c(F)cc1C(=O)N[C@](C)(CC)C(=O)O` [Compound of Example 23, (−)-N-(4-Amino-2-ethoxy-5-fluorobenzoyl)-D-isovaline], the IC50 in experiment [1] is 490 nM; in the experiment on Bacteroides, less than 3000 nM. The “Plasma Indoxyl Sulfate Reduction Effect” value in the experiment on plasma indoxyl sulfate is on record as 1 mg/kg.

With `CCCOc1cc(N)c(F)cc1C(=O)N[C@](C)(CC)C(=O)O` [Compound of Example 27, (−)-N-(4-Amino-5-fluoro-2-propoxybenzoyl)-D-isovaline], the half-maximal inhibitory concentration (IC50) in experiment [1] was 90 nM; with Bacteroides it was less than 3000 nM. Moreover, the “Plasma Indoxyl Sulfate Reduction Effect” value in the experiment on plasma indoxyl sulfate stood at 1 mg/kg.

Consider `CC[C@@](C)(NC(=O)c1cc(I)c(N)cc1OC)C(=O)O` [Compound of Example 16, (−)-N-(4-Amino-5-iodo-2-methoxybenzoyl)-D-isovaline], for which the figures for the IC50 (in experiment [1]; in the experiment on Bacteroides) were 360 nM and less than 3000 nM, respectively. In addition, the “Plasma Indoxyl Sulfate Reduction Effect” value with plasma indoxyl sulfate amounted to 1 mg/kg.

For `CC[C@@](C)(NC(=O)c1cc(Br)c(N)cc1OC)C(=O)O` [Compound of Example 15, (−)-N-(4-Amino-5-bromo-2-methoxybenzoyl)-D-isovaline], the IC50 in experiment [1] is 770 nM; in the experiment on Bacteroides, less than 3000 nM. Moreover, the “Plasma Indoxyl Sulfate Reduction Effect” value in the experiment on plasma indoxyl sulfate is listed as 1 mg/kg.

With `CCOc1cc(N)c(F)cc1C(=O)N[C@@](C)(CC)C(=O)O` [Compound of Example 24, (+)-N-(4-Amino-2-ethoxy-5-fluorobenzoyl)-L-isovaline], the IC50 in experiment [1] is 130 nM; with Bacteroides, less than 3000 nM. The “Plasma Indoxyl Sulfate Reduction Effect” value in the experiment with plasma indoxyl sulfate is 1 mg/kg.
